The values below come from article PMC11769286, “Nanoformulation of Polymyxin E Through Complex Coacervation: A Pharmacokinetic Analysis” (Pharmaceutics, 2025).

Values after ≈ are worked out from the molar mass of the structure shown. Positions of bridges follow the written chain, without caps; N, C: chain ends. Non-standard residues stand in square brackets, D forms with d. Residues, ends and D or L forms follow the SMILES beside them. *: point of attachment. Heptanoyl(5-Me) = CCC(C)CCCC(=O)*; Dab = NCC[C@H](N)C(=O)O

One data set concerns CD-1 mice. Nature of the data set: Determination of maximum tolerated dose (MTD). Particulars: male CD-1 mice, n = 3, tail vein, BID (q8h). In kind it is in vivo. On the procedure: CD-1 mice, male, 7–8 weeks old, weighing 25–30 g, were purchased from Shanghai Lingchang Laboratory Animal Co. The mice were grouped into n = 3, and different doses of PME were injected into the tail vein of mice via BID (q8h). HA2 prescription (HA2-2.6, HA2-2 and HA2-1.5) and SOP prescription (SOP-2.6, SOP-2 and SOP-1.5) were used for MTD examination.

In data set [1] the test system is A. Baumannii ATCC BAA-1605. Conditions: 8 mpk BID q12h, tail vein; 24 h after infection.
Description: CD-1 mice (SPF grade, female, 7 weeks old, 27–29 g) were provided by Zhejiang Weitong Lihua Laboratory Animal Technology Co., Ltd. A. Baumannii ATCC BAA-1605 was provided by Nantong Wuxi Apptec Medical Technology Co., Ltd. (Nanjing, China). Experimental animals were admitted to Wuxi AppTec BSL-2 animal facility and subjected to an adaptation period of at least 3 to 4 days. Immunosuppressed mice with neutrophil deficiency were prepared by intraperitoneal injection of cyclophosphamide (150 mg/kg at day -4; 100 mg/kg at day -1). On day 0, the infected bacterial solution was inoculated by intramuscular injection, and 0.1 mL of the bacterial solution was inoculated into the right thigh of each mouse. At 2 h and 24 h after infection, the PME formulations were administered by tail vein according to the experimental protocol. Animals in the blank group were euthanized 2 h after infection. The right thighs of those mice were collected and homogenized. The diluent was cultured overnight and CFUs were counted the next day. Animals in the negative control group and other treatment groups were euthanized 24 h after infection. […] The diluent was cultured overnight and CFUs were counted the next day. […]
The dosages were calculated based on the weight of the mice, and different dosage levels were achieved by adjusting the drug volume accordingly.
A short description of a further data set: in vivo. Particulars: SD, rat.
The conditions of data set [2]: rat, in vivo.
The subject of another data set is Klebsiella pneumoniae. It counts as cell-based. The text has this:
(§1) In line with the 2021 edition of the United States Clinical and Laboratory Standards Institute (CLSI) guidelines (https://clsi.org/), we employed the broth microdilution method to determine the MIC of the compounds against clinical Gram-negative bacilli. We tested 23 strains of Escherichia coli, including 12 carbapenem-sensitive and 11 drug-resistant strains, and 22 strains of Klebsiella pneumoniae, including 12 carbapenem-sensitive and 10 drug-resistant strains. Additionally, we assessed 20 strains of Acinetobacter baumannii, again including 10 carbapenem-sensitive and 10 drug-resistant strains, and 21 strains of Pseudomonas aeruginosa. Quality control strains used were Escherichia coli ATCC 25922 and Pseudomonas aeruginosa ATCC 27853 [20]. For the preparation of antimicrobial agents, we dissolved seven batches of the test drug in 3 mL of water and subsequently diluted it to a concentration of 500 mg/L. The control drug was prepared according to CLSI requirements. The antibacterial solutions were tested over a concentration range spanning from 0.015 mg/L to 32 mg/L. We utilized cation-adjusted Mueller–Hinton broth (CAMHB) from BD Company, with lot number 9324795.
(§2) Regarding bacterial inoculation, we selected fresh, pure bacterial colonies from Columbia blood agar using the direct colony suspension method, resulting in a turbidity of 0.5 McFarland units. This suspension was then appropriately diluted, yielding a final bacterial concentration of 10^5 CFU/mL. Culturing conditions involved incubation in ambient air at 35 ± 2 °C for a duration of 16–20 h. Results were interpreted in accordance with the European EUCAST breakpoint criteria, where PME sensitivity was defined as ≤2 mg/L and resistance as ≥4 mg/L. Criteria for assessing other tested drugs were provided by the party commissioning the study. The MIC value represented the minimum drug concentration necessary to inhibit bacterial growth. Data analysis was performed using WHONET 5.6 software for statistical evaluation of the drug susceptibility test results.

In the next data set the test system is Acinetobacter baumannii. It counts as cell-based.
Description: as §1, §2

On the set-up of data set [3]: species or system SD rats. Conditions: rat, in vivo, iv.

With `CCC(C)CCCC(=O)N[C@@H](CCN)C(=O)N[C@H](C(=O)N[C@@H](CCN)C(=O)N[C@H]1CCNC(=O)[C@H]([C@@H](C)O)NC(=O)[C@H](CCN)NC(=O)[C@H](CCN)NC(=O)[C@H](CC(C)C)NC(=O)[C@@H](CC(C)C)NC(=O)[C@H](CCN)NC1=O)[C@@H](C)O` (stereo partly drawn) ({Heptanoyl(5-Me)}-[Dab]T[Dab][Dab][Dab][dL]L[Dab][Dab]T; lactam 4-C), the “MTD / tolerated dose” value with CD-1 mice was found to be 10 mpk. In addition, in data set [1], the “change of bacterial levels” value is “did not increase bacterial levels”. Moreover, in “in vivo”, the AUC(0-inf) came out at 12300 ± 2120 ng·h/mL, the concentration peaked (Cmax) at 10300 ± 1780 ng/mL, the MRT was determined as 1.63 ± 0.15 h and the Tmax was found to be 4.8 min. Moreover, in the data set “in vivo”, the volume of distribution (Vd) was 0.404 ± 0.0545 L/kg, the clearance stood at 4.16 ± 0.78 mL/min/kg and the half-life was 1.33 ± 0.05 h. The “intersection point between distribution phase and elimination phase” value in data set [2] is recorded as 0.5 h. In addition, the MIC50 with Klebsiella pneumoniae came out at 0.5 µg/mL (≈ 0.433 µM). Also, in the data set with Acinetobacter baumannii, the MIC50 turned out to be 0.5 µg/mL (≈ 0.433 µM) and the MIC range is 0.5 to 1 µg/mL. Further, the gastric mucosal bleeding entry in data set [3] is on record as “showed gastric mucosal bleeding”.

What is called AUC(0-inf) is total exposure, with the tail of the curve extrapolated. Low readings indicate low exposure, high ones high exposure. A word on the Cmax: it is the peak of the concentration-time curve. Broadly, the MRT is the average time that molecules of a dose stay in the body. Usually Tmax stands for the time at which the peak concentration occurs. Broadly, the Vd is a proportionality between amount in the body and measured concentration, not a real space. Lower therefore signals confinement near the circulation. A word on the clearance: it is a measure of how efficiently the substance is removed, as volume per time. One may read the half-life as the time in which the quantity being followed falls by half. In general, MIC50 refers to the lowest concentration that inhibits either 50% of growth or 50% of the strains tested, depending on the study. Lower therefore signals greater potency.
